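The compound was tested at five concentrations on cells cultured in 96-well plates, with a 48-hour exposure period. At the TGI there is no net growth.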
Columns and labels:
Test in all cases: NCI tumour cell line growth inhibition, 48 h
786-0 renal = tested on: 786-0 renal
A498 renal = tested on: A498 renal
A549 NSCLC = tested on: A549 NSCLC
ACHN renal = tested on: ACHN renal
CAKI-1 renal = tested on: CAKI-1 renal
COLO 205 colon = tested on: COLO 205 colon
DLD-1 colon = tested on: DLD-1 colon
DMS 114 small cell lung = tested on: DMS 114 small cell lung
DMS 273 small cell lung = tested on: DMS 273 small cell lung
EKVX NSCLC = tested on: EKVX NSCLC
HCT-116 colon = tested on: HCT-116 colon
HOP-18 NSCLC = tested on: HOP-18 NSCLC
HOP-62 NSCLC = tested on: HOP-62 NSCLC
HOP-92 NSCLC = tested on: HOP-92 NSCLC
HT29 colon = tested on: HT29 colon
IGROV1 ovarian = tested on: IGROV1 ovarian
KM12 colon = tested on: KM12 colon
KM20L2 colon = tested on: KM20L2 colon
LOX IMVI melanoma = tested on: LOX IMVI melanoma
LXFL 529 NSCLC = tested on: LXFL 529 NSCLC
M14 melanoma = tested on: M14 melanoma
M19-MEL melanoma = tested on: M19-MEL melanoma
MALME-3M melanoma = tested on: MALME-3M melanoma
MOLT-4 leukemia = tested on: MOLT-4 leukemia
NCI-H226 lung = tested on: NCI-H226 lung
NCI-H23 lung = tested on: NCI-H23 lung
NCI-H460 lung = tested on: NCI-H460 lung
NCI-H522 lung = tested on: NCI-H522 lung
OVCAR-3 ovarian = tested on: OVCAR-3 ovarian
OVCAR-4 ovarian = tested on: OVCAR-4 ovarian
OVCAR-5 ovarian = tested on: OVCAR-5 ovarian
OVCAR-8 ovarian = tested on: OVCAR-8 ovarian
RPMI-8226 leukemia = tested on: RPMI-8226 leukemia
RXF 393 renal = tested on: RXF 393 renal
SF-268 CNS = tested on: SF-268 CNS
SF-295 CNS = tested on: SF-295 CNS
SF-539 CNS = tested on: SF-539 CNS
SK-MEL-2 melanoma = tested on: SK-MEL-2 melanoma
SK-MEL-28 melanoma = tested on: SK-MEL-28 melanoma
SK-MEL-5 melanoma = tested on: SK-MEL-5 melanoma
SK-OV-3 ovarian = tested on: SK-OV-3 ovarian
SN12C renal = tested on: SN12C renal
SNB-19 CNS = tested on: SNB-19 CNS
SNB-75 CNS = tested on: SNB-75 CNS
SNB-78 CNS = tested on: SNB-78 CNS
SR leukemia = tested on: SR leukemia
SW-620 colon = tested on: SW-620 colon
TK-10 renal = tested on: TK-10 renal
U251 CNS = tested on: U251 CNS
UACC-257 melanoma = tested on: UACC-257 melanoma
UACC-62 melanoma = tested on: UACC-62 melanoma
UO-31 renal = tested on: UO-31 renal
XF 498 CNS = tested on: XF 498 CNS
CCRF-CEM leukemia = tested on: CCRF-CEM leukemia
HCC-2998 colon = tested on: HCC-2998 colon
HCT-15 colon = tested on: HCT-15 colon
HL-60(TB) leukemia = tested on: HL-60(TB) leukemia
K-562 leukemia = tested on: K-562 leukemia

C=C1CC2CC(O)CC(C1)C2 (configuration not stated) showed a TGI (786-0 renal) of over 100 µM, a TGI (A498 renal) of over 100 µM and a TGI (A549 NSCLC) of over 100 µM. For the same compound, the TGI (ACHN renal) was over 100 µM, the TGI (CAKI-1 renal) was over 100 µM and the TGI (COLO 205 colon) was over 100 µM. It also gave a TGI (DLD-1 colon) of over 100 µM, a TGI (DMS 114 small cell lung) of over 100 µM and a TGI (DMS 273 small cell lung) of over 100 µM. It also gave a TGI (EKVX NSCLC) of over 100 µM, a TGI (HCT-116 colon) of over 100 µM and a TGI (HOP-18 NSCLC) of over 100 µM. It also gave a TGI (HOP-62 NSCLC) of over 100 µM, a TGI (HOP-92 NSCLC) of over 100 µM and a TGI (HT29 colon) of over 100 µM. The TGI (IGROV1 ovarian) was over 100 µM, the TGI (KM12 colon) was over 100 µM and the TGI (KM20L2 colon) was over 100 µM. For the same compound, the TGI (LOX IMVI melanoma) was over 100 µM, the TGI (LXFL 529 NSCLC) was over 100 µM and the TGI (M14 melanoma) was over 100 µM. For the same compound, the TGI (M19-MEL melanoma) was over 100 µM, the TGI (MALME-3M melanoma) was over 100 µM and the TGI (MOLT-4 leukemia) was over 100 µM. For the same compound, the TGI (NCI-H226 lung) was over 100 µM, the TGI (NCI-H23 lung) was over 100 µM and the TGI (NCI-H460 lung) was over 100 µM. It also gave a TGI (NCI-H522 lung) of over 100 µM, a TGI (OVCAR-3 ovarian) of over 100 µM and a TGI (OVCAR-4 ovarian) of over 100 µM. The TGI (OVCAR-5 ovarian) was over 100 µM, the TGI (OVCAR-8 ovarian) was over 100 µM and the TGI (RPMI-8226 leukemia) was over 100 µM. For the same compound, the TGI (RXF 393 renal) was over 100 µM, the TGI (SF-268 CNS) was over 100 µM and the TGI (SF-295 CNS) was over 100 µM. The TGI (SF-539 CNS) was over 100 µM, the TGI (SK-MEL-2 melanoma) was over 100 µM and the TGI (SK-MEL-28 melanoma) was over 100 µM. The TGI (SK-MEL-5 melanoma) was over 100 µM, the TGI (SK-OV-3 ovarian) was over 100 µM and the TGI (SN12C renal) was over 100 µM. For the same compound, the TGI (SNB-19 CNS) was over 100 µM, the TGI (SNB-75 CNS) was over 100 µM and the TGI (SNB-78 CNS) was over 100 µM. The TGI (SR leukemia) was over 100 µM, the TGI (SW-620 colon) was over 100 µM and the TGI (TK-10 renal) was over 100 µM. It also gave a TGI (U251 CNS) of over 100 µM, a TGI (UACC-257 melanoma) of over 100 µM and a TGI (UACC-62 melanoma) of over 100 µM. It also gave a TGI (UO-31 renal) of over 100 µM and a TGI (XF 498 CNS) of over 100 µM.

In the case of OCc1cc2ccncc2c2c1[nH]c1ccccc12, the TGI (A498 renal) is reported as 19.6 µM, the TGI (A549 NSCLC) is reported as 24.8 µM and the TGI (ACHN renal) is reported as 15.9 µM. It also gave a TGI (CAKI-1 renal) of 17.9 µM, a TGI (CCRF-CEM leukemia) of over 100 µM and a TGI (COLO 205 colon) of 29.4 µM. It also gave a TGI (DLD-1 colon) of over 100 µM, a TGI (DMS 114 small cell lung) of 23.1 µM and a TGI (DMS 273 small cell lung) of 16.5 µM. It also gave a TGI (EKVX NSCLC) of over 100 µM, a TGI (HCC-2998 colon) of 22.1 µM and a TGI (HCT-116 colon) of 15.7 µM. It also gave a TGI (HCT-15 colon) of 91.5 µM, a TGI (HL-60(TB) leukemia) of 24.9 µM and a TGI (HOP-18 NSCLC) of 27.4 µM. For the same compound, the TGI (HOP-92 NSCLC) was 82.5 µM, the TGI (HT29 colon) was 22.8 µM and the TGI (IGROV1 ovarian) was 17.1 µM. The TGI (K-562 leukemia) was over 100 µM, the TGI (KM12 colon) was over 100 µM and the TGI (LOX IMVI melanoma) was 16.3 µM. It also gave a TGI (LXFL 529 NSCLC) of 22 µM, a TGI (M14 melanoma) of 43.8 µM and a TGI (MALME-3M melanoma) of 24.6 µM. For the same compound, the TGI (MOLT-4 leukemia) was over 100 µM, the TGI (NCI-H226 lung) was 6.71 µM and the TGI (NCI-H23 lung) was 48.2 µM. It also gave a TGI (NCI-H460 lung) of 19.5 µM, a TGI (OVCAR-4 ovarian) of 26.8 µM and a TGI (OVCAR-5 ovarian) of 26.7 µM. The TGI (OVCAR-8 ovarian) was 49.3 µM, the TGI (RPMI-8226 leukemia) was 37.2 µM and the TGI (RXF 393 renal) was 9.77 µM. It also gave a TGI (SF-268 CNS) of 34.2 µM, a TGI (SF-295 CNS) of 25.1 µM and a TGI (SF-539 CNS) of 14.8 µM. It also gave a TGI (SK-MEL-2 melanoma) of 67.5 µM, a TGI (SK-MEL-28 melanoma) of over 100 µM and a TGI (SK-MEL-5 melanoma) of 25.1 µM. The TGI (SN12C renal) was 30.3 µM, the TGI (SNB-75 CNS) was 19.5 µM and the TGI (SNB-78 CNS) was 63.1 µM. It also gave a TGI (SR leukemia) of 20 µM, a TGI (SW-620 colon) of 19.7 µM and a TGI (TK-10 renal) of 67.7 µM. For the same compound, the TGI (U251 CNS) was 18.9 µM, the TGI (UACC-257 melanoma) was 51.3 µM and the TGI (UO-31 renal) was 28 µM. The TGI (XF 498 CNS) was 19.7 µM.

From PubChem BioAssay (NCI)
